Values after ≈ are worked out from the molar mass of the structure shown.

As a reminder, the LC50 is the concentration that kills 50% of the test population. Read a high LC50 as lower toxicity.

Assay type in all cases: functional
Experiment [1] relates to Tetranychus urticae. Description: Acaricidal activity against Tetranychus urticae (two-spotted spider mite) in two-leaf stage of kidney bean leaf surface at 500 ppm after 6 hr relative to control.
For experiment [2], the system named is Tetranychus urticae. The experiment in a line: Acaricidal activity against Tetranychus urticae (two-spotted spider mite) in two-leaf stage of kidney bean leaf surface at 62.5 ppm after 6 hr relative to control.
The subject of experiment [3] is Tetranychus urticae. Description: Acaricidal activity against Tetranychus urticae (two-spotted spider mite) in two-leaf stage of kidney bean leaf surface at 15.6 ppm after 6 hr relative to control.
Experiment [4] deals with Tetranychus urticae. The experiment in a line: Acaricidal activity against Tetranychus urticae (two-spotted spider mite) in two-leaf stage of kidney bean leaf surface at 250 ppm after 6 hr relative to control.
For a further experiment, the system named is Tetranychus kanzawai. Description: Acaricidal activity against Tetranychus kanzawai in kidney bean leaf surface after 48 hr.
Experiment [5] relates to Tetranychus urticae. The experiment in a line: Acaricidal activity against Tetranychus urticae (two-spotted spider mite) in kidney bean leaf surface after 48 hr.

On to `CO/N=C(/c1ccc(Cl)cc1)c1ccccc1COc1nnc(C(F)(F)F)s1`, for which the Activity with Tetranychus urticae [1] is reported as 0%. Still for that read-out and setting: then `CO/N=C(/c1ccc(Cl)cc1)c1ccccc1COc1ncccc1C(F)(F)F`, with 0%; and `CO/N=C(/c1ccc(Cl)cc1)c1ccccc1COc1ncc(C(F)(F)F)cc1Cl`, with 0%; and `CO/N=C(/c1ccccc1)c1ccccc1COc1ccc(C(F)(F)F)cn1`, with 0%.

`CON=C(c1ccccc1F)c1ccccc1COc1ccc(C(F)(F)F)cn1` yielded an Activity in the experiment on Tetranychus urticae [1] of 0%. The same measure, in the same setting: then `CO/N=C(/c1cccc(F)c1)c1ccccc1COc1ccc(C(F)(F)F)cn1`, with 70%. In the case of `CO/N=C(/c1ccc(F)cc1)c1ccccc1COc1ccc(C(F)(F)F)cn1`, the Activity in the experiment on Tetranychus urticae [1] is on record as 95%; in the experiment on Tetranychus urticae [2], 70%; with Tetranychus urticae [3], 0%; in the experiment with Tetranychus urticae [4], 95%. `CO/N=C(/c1ccccc1Cl)c1ccccc1COc1ccc(C(F)(F)F)cn1` yielded an Activity in the experiment with Tetranychus urticae [1] of 0%. Still for that read-out and setting: then `CO/N=C(/c1cccc(Cl)c1)c1ccccc1COc1ccc(C(F)(F)F)cn1`, with 0%; and `CO/N=C(/c1ccc(C)cc1)c1ccccc1COc1ccc(C(F)(F)F)cn1`, with 0%; and `CO/N=C(/c1ccc(OC)cc1)c1ccccc1COc1ccc(C(F)(F)F)cn1`, with 0%. Turning to `CO/N=C(/c1ccc(Br)cc1)c1ccccc1COc1ccc(C(F)(F)F)cn1`, the Activity in the experiment with Tetranychus urticae [1] amounted to 95%; in the experiment with Tetranychus urticae [2], 95%; in the experiment on Tetranychus urticae [3], 70%; in the experiment with Tetranychus urticae [4], 95%. Regarding `CO/N=C(/c1ccc(C(F)(F)F)cc1)c1ccccc1COc1ccc(C(F)(F)F)cn1`, the Activity in the experiment on Tetranychus urticae [1] was 95%; with Tetranychus urticae [2], 95%; with Tetranychus urticae [3], 70%; in the experiment with Tetranychus urticae [4] it was 95%. Moreover, the LC50 turned out to be 7.2 µg/mL (≈ 15.8 µM) with Tetranychus kanzawai and 24.8 µg/mL (≈ 54.6 µM) in the experiment on Tetranychus urticae [5].

As to `CO/N=C(/c1ccc(OC(F)(F)F)cc1)c1ccccc1COc1ccc(C(F)(F)F)cn1`, the Activity came to 95% in the experiment on Tetranychus urticae [1], 70% with Tetranychus urticae [2], 0% with Tetranychus urticae [3] and 70% in the experiment with Tetranychus urticae [4]. With `CO/N=C(/c1ccc([N+](=O)[O-])cc1)c1ccccc1COc1ccc(C(F)(F)F)cn1`, the Activity in the experiment on Tetranychus urticae [1] was determined as 95%; in the experiment on Tetranychus urticae [2], 70%; with Tetranychus urticae [3], 0%; with Tetranychus urticae [4], 95%. Consider `CO/N=C(/c1ccc(C#N)cc1)c1ccccc1COc1ccc(C(F)(F)F)cn1`, for which the Activity is 95% in the experiment with Tetranychus urticae [1], 70% in the experiment with Tetranychus urticae [2], 0% in the experiment on Tetranychus urticae [3] and 95% in the experiment on Tetranychus urticae [4]. `CO/N=C(/c1ccc(-c2ccccc2)cc1)c1ccccc1COc1ccc(C(F)(F)F)cn1` displayed an Activity in the experiment on Tetranychus urticae [1] of 0%. The molecule `CO/N=C(/c1ccc(Oc2ccccc2)cc1)c1ccccc1COc1ccc(C(F)(F)F)cn1` yielded an Activity in the experiment on Tetranychus urticae [1] of 0%. On the same count and under the same terms, for `CO/N=C(/c1ccc(Cl)cc1)c1ccccc1COc1ccccc1` the value was 0%. Same read-out and setting: for `CO/N=C(/c1ccc(Cl)cc1)c1ccccc1COc1ccccc1Cl` the value was 0%. `CO/N=C(/c1ccc(Cl)cc1)c1ccccc1COc1cccc(Cl)c1`: the Activity in the experiment on Tetranychus urticae [1] is 0%.

Take `CO/N=C(/c1ccc(Cl)cc1)c1ccccc1COc1ccc(Cl)cc1`: in the experiment with Tetranychus urticae [1], the Activity was 0%. `CO/N=C(/c1ccc(Cl)cc1)c1ccccc1COc1ccccc1C(F)(F)F` gave an Activity in the experiment on Tetranychus urticae [1] of 0%. Same read-out and setting: for `CO/N=C(/c1ccc(Cl)cc1)c1ccccc1COc1cccc(C(F)(F)F)c1` the value was 0%. As to `CO/N=C(/c1ccc(Cl)cc1)c1ccccc1COc1ccc(C(F)(F)F)cc1`, the Activity with Tetranychus urticae [1] is given as 95%; in the experiment with Tetranychus urticae [2], 0%; with Tetranychus urticae [4], 95%. With `CO/N=C(/c1ccc(Cl)cc1)c1ccccc1COc1ccc(C)cc1`, the Activity in the experiment with Tetranychus urticae [1] amounted to 0%. Take `CO/N=C(/c1ccc(Cl)cc1)c1ccccc1COc1ccc(C(C)(C)C)cc1`: the Activity in the experiment with Tetranychus urticae [1] is on record as 0%.

In the experiment on Tetranychus urticae [1], `CO/N=C(/c1ccc(Cl)cc1)c1ccccc1COc1ccc(OC(F)(F)F)cc1` had an Activity of 0%. In the experiment on Tetranychus urticae [1], `CO/N=C(/c1ccc(Cl)cc1)c1ccccc1COc1ccc(-c2ccccc2)cc1` showed an Activity of 0%. On to `CO/N=C(\c1ccc(Cl)cc1)c1ccccc1COc1ccc(C(F)(F)F)cc1`, for which the Activity in the experiment on Tetranychus urticae [1] is 95%; with Tetranychus urticae [4] it was 70%. In turn, `CON=C(c1ccc(Cl)cc1)c1cccc(COc2ccc(C(F)(F)F)cc2)c1` showed an Activity in the experiment with Tetranychus urticae [1] of 0%.

Consider `CON=C(c1ccc(Cl)cc1)c1ccc(COc2ccc(C(F)(F)F)cc2)cc1`, for which, in the experiment on Tetranychus urticae [1], the Activity is 0%. Molecule `CO/N=C(\c1ccc(F)cc1)c1ccccc1COc1ccc(C(F)(F)F)cc1` returned an Activity in the experiment on Tetranychus urticae [1] of 70%. Turning to `CO/N=C(/c1ccc(F)cc1)c1ccccc1COc1ccc(C(F)(F)F)cc1`, the Activity in the experiment on Tetranychus urticae [1] is listed as 95%; with Tetranychus urticae [4], 0%. `CON=C(c1ccc(F)cc1)c1cccc(COc2ccc(C(F)(F)F)cc2)c1`: the Activity in the experiment on Tetranychus urticae [1] is on record as 0%. In the experiment with Tetranychus urticae [1], `CON=C(c1ccc(F)cc1)c1ccc(COc2ccc(C(F)(F)F)cc2)cc1` showed an Activity of 0%. Consider `CO/N=C(/c1ccc(Cl)cc1)c1ccccc1Oc1ccc(C(F)(F)F)cc1`, for which the Activity with Tetranychus urticae [1] is 0%. In turn, `CO/N=C(/c1ccc(Cl)cc1)c1ccccc1OCc1ccc(C(F)(F)F)cc1` had an Activity in the experiment on Tetranychus urticae [1] of 0%. In the case of `CO/N=C(/c1ccc(Cl)cc1)c1ccccc1COc1ccc(C(F)(F)F)cn1`, the Activity with Tetranychus urticae [1], in the experiment with Tetranychus urticae [2], in the experiment with Tetranychus urticae [3] and with Tetranychus urticae [4] was 95% each time. The LC50 with Tetranychus kanzawai amounted to 9 µg/mL (≈ 21.4 µM); with Tetranychus urticae [5], 16.4 µg/mL (≈ 39 µM).

As to `CC(C)(C)c1ccc(CSc2cnn(C(C)(C)C)c(=O)c2Cl)cc1` [PYRIDABEN], the values for the LC50 in the experiment with Tetranychus kanzawai and in the experiment with Tetranychus urticae [5] were 33.7 µg/mL (≈ 92.3 µM) and 34.5 µg/mL (≈ 94.5 µM), respectively.
